Laboratory results: publication PMC11948903, “Exploring the synergy between fungal CE15 glucuronoyl esterases and xylanases for lignocellulose saccharification” (Biotechnology for Biofuels and Bioproducts, 2025)

Tests used:
TlGE15 = test system: T1, TlGE15; test: HPLC of released cinnamyl alcohol (UV […] nm), Michaelis-Menten fit; type: biochemical, Trametes ljubarskyi; conditions: 40 °C, pH 5; substrate 0.2–5.0 mM; read-out: Kinetic parameters / KM
T1 construct: gene tlge; mature protein with N-terminal CBM1 and CE15 domain; native signal peptide (21 of 474 residues) removed; alpha-factor secretion signal, C-terminal His6 tag kept; Pichia pastoris X33

AeGE15 = test system: T2, AeGE15; test: as above; type: biochemical, Artolenzites elegans; conditions: 50 °C, pH 5; substrate 0.2–5.0 mM; read-out: Kinetic parameters / KM
T2 construct: gene aege; mature protein with N-terminal CBM1 and CE15 domain; native signal peptide (21 of 471 residues) removed; alpha-factor secretion signal, C-terminal His6 tag kept; Pichia pastoris X33

Km (TlGE15): 3.2 ± 0.5 mM
Km (AeGE15): 3.6 ± 0.6 mM
Structure (SMILES): O=C(OC/C=C/c1ccccc1)[C@H]1OC(O)[C@H](O)[C@@H](O)[C@@H]1O (stereo partly drawn) [trans−3-phenyl-2-propen-1-yl D-glucopyranosyluronate]
